Laboratory results from US6124310A, “Enediyne compounds” (priority 1995, dated 2000).

Legend:
UV4 cells = experiment: Growth inhibition of UV4 cells, 18 hours in 96-well plates under aerobic conditions, without or with purified E. coli nitroreductase and NADH; assay type: cell-based; details: for IC50: Cricetulus griseus, UV4, 18 h, 18 hours, aerobic
Protocol: The compound prepared in Example 1 was activated by the aerobic nitroreductase from E. coli, by being incubated with UV4 cells for 18 hours in 96-well plates under aerobic conditions.

tumour cell cultures = details: naturally-occurring enediyne antibiotics, literature; cited from earlier work

O=C(OCc1ccc([N+](=O)[O-])cc1)N1c2ccccc2C23OC24CCCC3C#C/C=C\C#CC14 (racemic) [compound 2, (6R,6aR,10R,10aS,14Z)-(±)-(4-nitrophenyl)methyl 7,8,9,10-tetrahydro-6a,10a-epoxy-6, [3]-hexene[1,5]diynophenanthridine-5(6H)-carboxylate]
IC50 (UV4 cells; compound alone): 18.1 µM
IC50 (UV4 cells; together with purified E. coli nitroreductase enzyme (1 μg/mL) and NADH (1 mM, as cofactor)): 0.19 µM
fold activation by the enzyme (UV4 cells; ratio of IC50 without / with E. coli nitroreductase + NADH, 1080 min): 115 fold

O=C(Oc1ccccc1)N1c2ccccc2C23OC24CCCC3C#C/C=C\C#CC14 (stereo not shown) [formula A']
showed any activation by the enzyme (UV4 cells; E. coli nitroreductase, in words: 'neither ... showed any activation'): neither

calicheamicin
IC50 values for inhibition of growth of tumour cell cultures (tumour cell cultures): low pM range

dynemicin
IC50 values for inhibition of growth of tumour cell cultures (tumour cell cultures): low pM range

esperamicin
IC50 values for inhibition of growth of tumour cell cultures (tumour cell cultures): low pM range
